The values that follow come from PMC6609034, “Unraveling the role of the secretor antigen in human rotavirus attachment to histo-blood group antigens” (PLoS Pathogens, 2019).

The subject of experiment [1] is VP8* P[8]c binding to LNB. The experiment is described as follows: Binding blocking assay, immobilized LNB. More on the design: species or system human rotavirus. As to conditions: soluble sugar at 20 mM. On the procedure: To confirm the binding of the VP8* from the P[8] genotype to the H type-1 precursor LNB, a blocking assay was performed using soluble LNB and its related disaccharide galacto-N-biose (Gal-β-1,3-GalNAc; GNB) produced and purified in our laboratory as previously described.
Streptavidin microtiter plates were coated with biotinylated H type-1 antigen or LNB at 2 μg/ml with water and incubated for 1 hour at 37°C, followed by an overnight incubation at 4°C. Blocking assays were performed in parallel, using glass tubes containing the P[8]c and P[8]Wa VP8* protein at their EC50 for each ligand and 20 mM of each of the soluble disaccharides (LNB and GNB) and monosaccharides (D-galactose, GlcNAc and GalNAc). A positive binding control without sugar was also included. The tubes containing the mixes of VP8* with sugars were maintained 1 hour at 37°C, followed by an overnight incubation at 4°C. The next day the coated streptavidin plates were washed with PBS-T, the VP8*-sugar solutions were added to the plates and incubated during 4 hours at 4°C. The plates were washed three times with PBS-T and detection of the interactions was performed as described above. The results are presented as the percentage (%) of binding of each condition compared to the binding of the positive binding control (without blocking sugar). All experiments were performed in triplicate.

The test system of experiment [2] is rotavirus Wa strain (G1P[8]) in MA104 cells. The experiment is described as follows: Blocking of rotavirus infection in MA104 cells (fluorescent focus assay). It is filed as cell-based, human rotavirus. As to conditions: sugar at 5 mg/mL. How it is done:
The G1P[8] Wa strain was tested on MA104 cells. The sugars LNB, GNB, GlcNAc, GalNAc, D-galactose and L-fucose were tested for their effect on rotavirus infectivity. The oligosaccharides were previously heat sterilized at 99°C for 10 min and then dissolved in serum-free DMEM containing 1 μg/ml trypsin. Serum-free DMEM containing […] oligosaccharide was used as a control in each experiment.
The effect of different mono- and disaccharides on rotavirus infectivity was assessed through standard fluorescent focus assays on MA104 cells. The dilution of Wa virus stocks that yielded ~150 focus-forming units/well was first established. Then, sugars were added during virus inoculation at a final concentration of 5 mg/ml, incubated for 1 hour, and unbound virus was removed by washing with FBS-DMEM. The cells were allowed to be infected for 16h, washed once with PBS and fixed with 100% methanol. A mouse anti-VP6 primary antibody (1:50 dilution in PBS containing 3% BSA) was added and incubation proceeded for 30 min at room temperature with gentle rotation. […] Individual fluorescence foci were counted on an inverted fluorescence microscope with a FITC-compatible filter. […] Virus titer measured in the absence of oligosaccharides was considered to be 100% infectivity, and changes in virus titer in the presence of sugars were expressed as percentage of infectivity compared with no sugar treatment.

The test system of experiment [3] is VP8* P[6]. Kind of experiment: ELISA-like binding assay to biotinylated HBGAs. Also noted: species or system human rotavirus. Conditions: biotinylated PAA glycan 2 μg/ml, VP8* 10 μg/ml. An excerpt:
(§1) A panel of biotinylated sugar antigens including Le^a, Le^b, Le^c (lacto-N-biose; LNB), H type-1, H type-2 and blood group A and B trisaccharides were purchased from Glyconz (Fig 1 and S1 Table). These glycans are biotinylated neoglyconjugates of a poly[N-(2-hydroxyethyl)acrylamide] (PAA) with a size from 30 to 50 KDa. This forms a flexible polymer ideal for a multivalent presentation of glycans. Immobilized streptavidin F96 black plates (Nunc) were coated with the biotinylated oligosaccharides (2 μg/ml) in milli-Q water and incubated during 1 hour at 37°C. After functionalization the plates were washed once with PBS containing 0.05% of Tween 20 (PBS-T) and the VP8* proteins were added (10 μg/ml) and incubated at 4°C overnight. After three washes with PBS-T, a rabbit polyclonal antibody anti GST (1:1,000) (Abcam) was added and the plates were incubated one hour at 37°C. Then, the plates were washed three times with PBS-T and incubated for 1 h at 37°C with 1:10,000 dilution of horseradish peroxidase (HRP)-conjugated goat anti-rabbit (Abcam). After three washes with PBS-T, the binding was detected using QuantaBlue reagent (ThermoFisher) kit, as recommended by the manufacturer. Fluorescence units were registered by a MultiScan microplate reader. All the binding assays were performed in triplicate.
(ELISA stands for enzyme-linked immunosorbent assay.)

In experiment [4] the test system is VP8* P[4]. Kind of experiment: ELISA-like binding assay to biotinylated HBGAs. More on the design: species or system human rotavirus. As to conditions: biotinylated PAA glycan 2 μg/ml, VP8* 10 μg/ml.
From the text: as §1

On to `CC(=O)NC1C(O)OC(CO)C(O)C1OC1OC(CO)C(O)C(O)C1O` (stereo not drawn) [LNB, Gal-β1,3-GlcNAc], for which, in experiment [1], the “reduction of the binding of VP8* P[8]c to LNB” value is listed as 52.2%. Besides, in experiment [2], the “reduction of viral infection” value was 33%.
On to `CC(=O)NC1C(O)OC(CO)C(O)C1OC1OC(CO)C(O)C(O)C1OC1OC(C)C(O)C(O)C1O` (stereo not drawn) [H1, Fuc-α1,2-Gal-β1,3-GlcNAc], for which the “binding (ELISA-like)” value in experiment [3] and in experiment [4] was “recognized” throughout.
